Source: the METLIN SMRT retention time set (Domingo-Almenara et al. 2019)

Assay: gradient 5% acetonitrile 3 min, to 50% in 2 min, to 85% in 15 min, held 3 min, 100 µL/min
Settings: column: Zorbax Extend-C18 2.1 x 50 mm; eluents: water / acetonitrile, 0.1% formic acid
In short: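 Retention time was recorded from adduct peaks, which were picked computationally and each inspected manually. Pure standards ran in mixtures of ~100 molecules on HPLC coupled to a quadrupole time-of-flight mass spectrometer, in positive and negative ionization mode, through a Zorbax Extend-C18 column (2.1 × 50 mm, 1.8 μm) at 100 μL/min. Eluents were water and acetonitrile, each with 0.1% formic acid.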

Compound	RP-LC retention time
COc1ccc(C(=O)N2CC(F)(F)C[C@H]2COc2ccc3c(c2)CCC3)cn1	1150 s
CC(=O)Nc1cccc(C2=NN(C(C)=O)C(c3cccs3)C2)c1 (stereo not drawn)	685 s
Cc1ccc(Cn2cc(-c3nc(-c4ccc(Cl)cc4)no3)ccc2=O)cc1	1250 s
COCC(C)NC(=O)c1cc2c(s1)N(CC1CC1)CCCC2 (stereo not drawn)	976 s
Cc1sc2cc(C(=O)NC(C)(C)C)[nH]c2c1CN1CCCCC1	681 s
Cc1nn2c(C)c(C(=O)OC(C)C)nnc2c1-c1ccc(F)cc1	1060 s
COc1ccc(CNC(=O)c2nnc(-c3ccc(S(=O)(=O)N4CCOCC4)cc3)o2)cc1	829 s
CN1CCN(CCCNC(=O)C2c3ccccc3C(=O)N(C)C2c2cccs2)CC1 (stereo not drawn)	573 s
O=S(=O)(c1ccc2c(c1)CCC2)N1CCCC1c1nc(-c2cccc(Cl)c2)no1 (stereo not drawn)	1310 s
Cc1onc(C(=O)N2CCCCCCNC(=O)[C@@H]3CCCC[C@@H]32)c1CN1CCCCC1	686 s
O=C(Nc1ccc(Cl)cc1F)C1CCCN(C(=O)Cc2cccc3ccccc23)C1 (stereo not drawn)	1050 s
CCCN(C(=O)c1cccc(NC(=O)[C@H]2[C@@H]3C[C@@H]4[C@H]2C(=O)O[C@@H]4C3)c1)c1ccccc1F	853 s
Cn1nccc1-c1cccc(-c2noc(Cc3ccc(F)cc3)n2)c1	1040 s
O=C(Nc1ccc2c(c1)OCO2)N1CCC(N2CCN(Cc3ccccc3)C(=O)C2=O)CC1	706 s
O=C(NCCc1cccs1)C1CCCN(C(=O)c2cc(-c3ccccn3)n[nH]2)C1 (stereo not drawn)	645 s
CC1CCN(S(=O)(=O)c2cc(C(=O)N3CCN(c4cccc(Cl)c4)CC3)n(C)c2)CC1	1120 s
Cc1cc2nn(CC(=O)NC3CCCCC3)c(=O)n2c(Nc2ccc(F)cc2)n1	909 s
O=C(NC1CCCCCC1)c1cccc(CN2C(=O)C3CCCN3C(=O)c3ccccc32)c1 (stereo not drawn)	865 s
O=C(CN1C(=O)CCSc2ccccc21)Nc1ccc2c(c1)OCO2	627 s
CC(C)CNC(=O)C1CCN(c2nc3ccc(-c4cccnc4)nc3s2)CC1	640 s
Cc1ccc(S(=O)(=O)N2C[C@@H](F)C[C@H]2C(=O)N2CCc3ccccc3C2)cc1C	973 s
C=Cc1ccc(Cn2cc(S(=O)(=O)N3CCCC3)ccc2=O)cc1	886 s

Compound	RP-LC retention time
Cc1cccc(NC(=O)C2CCN(S(=O)(=O)c3cc(-c4noc(C)n4)cs3)CC2)n1	768 s
Cc1cc(C2CCCN2C(=O)Nc2ccccc2C(F)(F)F)on1 (stereo not drawn)	812 s
CC(C)CC(=O)Nc1ccc2nc(N3CCN(Cc4ccccc4F)CC3)cc(C(=O)O)c2c1	603 s
COc1ccc(CC(=O)N2CCN(c3ccc(-c4nc(C)cs4)cn3)CC2)cc1	851 s
Cc1cc(C)cc(NC(=O)C(=O)NCC(c2ccc3c(c2)OCO3)N2CCOCC2)c1 (stereo not drawn)	613 s
CS(=O)(=O)c1ccc(Nc2ncccc2S(N)(=O)=O)cc1	668 s
Cc1nc(-c2ccncc2)nc2c1CCC(=O)N2CCC1=CCCCC1	912 s
COCCCNC(=O)C1(C)Cn2nc(-c3ccccc3)cc2C(=O)N1c1ccc(F)cc1 (stereo not drawn)	806 s
O=C(Nc1ccccc1Br)c1n[nH]nc1Nc1ccccc1	1100 s
CCN(c1ccccc1)S(=O)(=O)c1cc2c3c(c1)CCC(=O)N3CCC2	910 s
CN(Cc1ccccc1)C(=O)C1CCN(S(=O)(=O)c2ccc3c(c2)sc(=O)n3C)CC1	852 s
CCC(=O)N(CC(=O)N(Cc1ccc2c(c1)OCO2)Cc1sccc1C)CC1CCCO1 (stereo not drawn)	864 s
CN(C)c1cccc(C(=O)N2CCC3(C2)C(=O)N(C)c2ccccc23)c1 (stereo not drawn)	710 s
COc1ccc(-c2noc(C3CCCN3C(=O)c3ccc(OC)nc3)n2)cc1 (stereo not drawn)	879 s
Fc1ccc(Cc2nc(-c3ccnc(N4CCCC4)c3)no2)cc1	708 s
CCOCCCNC(=O)C1CCCN(c2nccnc2Oc2ccc(C)cc2)C1 (stereo not drawn)	926 s
Cc1sc(NC(=O)Cc2ccccc2)nc1-c1ccc2c(c1)N(C)C(=O)CO2	926 s
CCC1(O)CCOC2(CCN(C(=O)CC3CC3)CC2)C1 (stereo not drawn)	627 s
COc1ccc(NC(=O)C2CN(S(=O)(=O)c3cccnc3)CC23CCCCC3)cc1F (stereo not drawn)	900 s
CCCNC(=O)c1cc(C)nc2ccc(Cl)cc12	719 s
O=C(Nc1cccc(OCc2nnc(-c3ccccc3)o2)c1)c1ccccn1	954 s
CC(=O)c1cccc(NC(=O)N2CCc3cc(-c4ccc(C(=O)N5CCOCC5)cc4)ccc32)c1	918 s

Compound	RP-LC retention time
Nc1nc2c(C(F)(F)F)cccc2s1	720 s
c1ccc(-c2nc(-c3ccc(-n4cccn4)nc3)no2)cc1	1200 s
Cc1noc(C)c1Cc1c(C(=O)NCCn2c(C)cnc2C2CC2)noc1C	623 s
Cc1cc(C2CCCN2C(=O)Cc2ccc(F)cc2Cl)no1 (stereo not drawn)	851 s
COc1cccc(N2CCN(C(=O)CN3CCN(Cc4ccc(C)cc4)C(=O)C3=O)CC2)c1	772 s
Cc1ccc(CNc2c(-c3ccc(N(C)C)cc3)nc3ncccn23)cc1	889 s
Cc1nc(C(=O)NCC(=O)O)c(O)c2ccc(Oc3ccccc3)cc12	793 s
COc1ccc(N2CCN(c3cc(SCC(=O)Nc4ccc(C)cc4Cl)ncn3)CC2)cc1	1200 s
CCn1nccc1-c1cccc(-c2noc(-c3cc(OC)cc(OC)c3)n2)c1	1240 s
O=C(O)c1cc(-c2ccc(Br)s2)nc2ccccc12	1110 s
O=C(Nc1ccccc1)c1cnc(-c2ccc(F)cc2)nc1-c1ccncc1	892 s
COc1ccc(CNC(=O)Cn2c(N3CCOCC3)nc(C)cc2=O)cc1	629 s
COc1ccc(CNC(=O)NC2CCN(c3ccc(F)cc3)C2=O)cc1 (stereo not drawn)	697 s
CC(C)N1C(=O)c2cccnc2Sc2cc(NC(=O)COc3ccccc3)ccc21	889 s
O=C(Cc1cccc(F)c1)N1CC(N2CC(C(=O)N3CCCC3)CC2=O)C1 (stereo not drawn)	648 s
Cc1cccc2nnc(N3CCN(C(=O)c4ccc5c(c4)OCO5)CC3)n12	556 s
Cc1ccc(CNC(=O)c2cccc(C3CCCN(C(=O)NC(C)C)C3)c2)cc1C (stereo not drawn)	952 s
COC(=O)c1cccc(C(=O)N2CCc3ccccc32)n1	797 s
CCCN1C(=O)c2cc(S(=O)(=O)Nc3ccc(F)cc3C)ccc2Oc2cccnc21	1100 s
O=C(CCc1c[nH]c2ccccc12)NCCc1c[nH]c2ccc(Cl)cc12	861 s
CN1c2c(Cl)cccc2C(=O)NC12CCN(C(=O)c1ccccc1)CC2	768 s
Cc1ccc(C)c(NC(=O)N(C)CCc2noc(COc3ccccc3F)n2)c1	919 s

Compound	RP-LC retention time
CCc1cccc(NC(=O)C2CCCN2S(=O)(=O)c2cc3c(cc2Cl)NC(=O)CO3)c1 (stereo not drawn)	836 s
CN(C)c1ccc(CNC(=O)c2ccc3ncnc(N4CCCC4)c3c2)cc1	556 s
CCCn1c(=O)c2sc(N3CCCC3)nc2n(CC(=O)Nc2cc(F)cc(F)c2)c1=O	902 s
CCn1cc(C(=O)Nc2ccccc2)c2cccnc21	798 s
CC(C)N1C[C@H](O)C[C@H]1c1nnc2n1CCN(C(=O)c1ccc3ccccc3n1)C2	586 s
CCCOC(=O)C1=C(C)NC2=C(C(=O)C(C(=O)OC)C(C)C2)C1c1ccc(N(C)C)cc1 (stereo not drawn)	668 s
O=C(Nc1ccccc1)N1CCc2nn(Cc3ccccc3)c(=O)n2CC1	736 s
O=C(NCc1ccc(F)cc1Cl)C1CCCN(c2nccnc2Sc2ccccc2)C1 (stereo not drawn)	1100 s
O=C(Nc1ccc2c(c1)OCO2)C1CCCN(S(=O)(=O)c2c[nH]c(C(=O)N3CCCC3)c2)C1 (stereo not drawn)	747 s
COc1ccc(N2CC(c3noc(-c4ccccc4)n3)CC2=O)cc1 (stereo not drawn)	919 s
CCOC(=O)Cn1c(C2CC(=O)N(c3ccccc3Cl)C2)nc2ccccc21 (stereo not drawn)	761 s
O=C(O)C1CCN(S(=O)(=O)c2ccc(Cl)c(-c3nnc(-c4ccccc4)o3)c2)CC1	887 s
COC(=O)C1=CN(C2CC2)c2cc(N3CCN(C)CC3)c(F)cc2S1(=O)=O	955 s
Cc1cc(S(=O)(=O)NCCc2cn(C)c3ncccc23)ccc1F	745 s
CCc1cccc(NC(=O)COc2cc(C)nc(N3CCN(c4ccccc4)CC3)n2)c1	922 s
CCCOc1ccc(CNC(=O)C2CCN(c3cc(Oc4ccccc4)ncn3)CC2)cc1	988 s
CCOC(=O)Cc1ccc(NC(=O)N2CCC(n3c(C)nc4cccnc43)C2)cc1 (stereo not drawn)	598 s
CCOC(=O)c1ccc(NC(=O)c2sccc2S(=O)(=O)N(C)c2ccc(OCC)cc2)cc1	1230 s
CC(C)C(=O)Nc1c(-c2ccc(F)cc2)nc2ccccn12	602 s
Cn1cc(-c2noc(-c3ccc(F)cc3)n2)ccc1=O	827 s
CCOc1ccc(-c2cn3ccn(-c4ccc(Cl)cc4)c(=O)c3n2)cc1	962 s
O=C(NCc1cccc(Cl)c1)c1cccn1-c1cccnc1	749 s
